Consider eight compounds from patent US8377422B2, “Carboxamide derivatives having cooling properties” (Givaudan S.A., priority 2007, dated 2013).

In one series the test system is panelists. Description: Cooling intensity: panel tasting of aqueous solutions against menthol at 2 ppm. As to conditions: for Concentration: aqueous solution with cooling intensity similar to or slightly higher than menthol at 2 ppm, tasted by small group of panelists. Format: in vivo, human.
In the next series the test system is panelist. Description: Application in toothpaste: cooling sensation after brushing. Format: in vivo, human. As to conditions: toothgel base with 0.10 g of 10% by weight ethanol solution and 0.30 g saccharin; teeth brushed, mouth rinsed with water. As to the method: 0.10 g of (1R,2S,5R)—N-(2-hydroxy-3-phenoxypropyl)-2-isopropyl-5-methylcyclohexane-carboxamide (at 10% by weight solved in ethanol) and 0.30 g saccharin were mixed in a toothgel base.
A piece of the thus prepared toothpaste was put on a toothbrush and a panelist's teeth were brushed. The mouth was rinsed with water and the water spat out. […] The cooling sensation was perceived for over 50 minutes.

Molecules are shown by their SMILES.

In the case of `CCNC(=O)C1CC(C)CCC1C(C)C` (stereo not shown) [WS-3, N-ethyl p-menthanecarboxamide], the Concentration in the series with panelists worked out at 1.5 ppm.

`CC(C)[C@@H]1CC[C@@H](C)C[C@H]1C(=O)NCCOc1ccccc1` [Ex. 2.7, (1R,2S,5R)-2-isopropyl-5-methyl-N-(2-phenoxyethyl)cyclohexanecarboxamide] showed a Concentration in the series on panelists of 0.01 ppm. Further, in the series on panelists (compared with the prior art compound), the “cooling intensity relative to prior art compound (1R,2S,5R)-2-isopropyl-N-(2-methoxyethyl)-5-methylcyclohexane-carboxamide” value was “about 100 times higher”.

Turning to `Cc1ccccc1OCCCNC(=O)[C@@H]1C[C@H](C)CC[C@H]1C(C)C` [Example 1, (1R,2S,5R)-2-isopropyl-5-methyl-N-(3-(o-tolyloxy)propyl)cyclohexane-carboxamide], the melting point – broadly, the temperature, or range, at which the solid turns liquid – was in the range of 89.4 to 91.1 °C.

In the series with panelists, `COCCNC(=O)[C@@H]1C[C@H](C)CC[C@H]1C(C)C` [(1R,2S,5R)-2-isopropyl-N-(2-methoxyethyl)-5-methylcyclohexanecarboxamide] showed a Concentration of 1.0 ppm.

The compound `CC(C)[C@@H]1CC[C@@H](C)C[C@H]1C(=O)NCCCOc1ccccn1` [Ex. 2.5, (1R,2S,5R)-2-isopropyl-5-methyl-N-(3-(pyridin-2-yloxy)propyl)cyclohexane-carboxamide] registered a Concentration with panelists of 0.02 ppm.

Consider `CC(C)[C@@H]1CC[C@@H](C)C[C@H]1C(=O)NCC(O)COc1ccccc1` (stereo partly drawn) [Example 2.2, (1R,2S,5R)—N-(2-hydroxy-3-phenoxypropyl)-2-isopropyl-5-methylcyclohexane-carboxamide], for which, in the series on panelist, the “cooling sensation felt by the panelist” value is recorded as “long lasting cooling sensation” and the “duration of perceived cooling sensation” value is on record as “over 50 minutes”.

Consider `CC(C)OCCCNC(=O)[C@@H]1C[C@H](C)CC[C@H]1C(C)C` [(1R,2S,5R)-N-(3-isopropoxypropyl)-2-isopropyl-5-methylcyclohexanecarboxamide], for which the Concentration in the series on panelists was determined as 0.1 ppm.

With `CC1CCC(C(C)C)C(O)C1` (stereo not shown) [I-Menthol], in the series with panelists, the Concentration is on record as 2.0 ppm.
